The values below come from patent US12564581B2, “Pyrazole pharmaceutical composition” (Intervet Inc., priority 2019, dated 2026).

The structures appear in SMILES notation.

Data set [1] can be described thus: Solubility of the compound in surfactant solutions. In kind it is physicochemical. The text has this:
To increase solubility of the compound and promote increase bioavailability, a number of surfactants were screened. The table below lists the solubilities of 1-[(3R,4S)-4-cyanotetrahydropyran-3-yl]-3-[(2-fluoro-6-methoxy-4-pyridyl)amino]pyrazole-4-carboxamide in the tested surfactant solutions.

The test system of a further data set is cIL-31 induced pruritus. Conditions: with respect to placebo; similar magnitude to oclacitinib (Apoquel); from WO 2018/108969; cited from earlier work.

As for `COc1cc(Nc2nn([C@H]3COCC[C@@H]3C#N)cc2C(N)=O)cc(F)n1` [compound of Formula (I), 1-[(3R,4S)-4-cyanotetrahydropyran-3-yl]-3-[(2-fluoro-6-methoxy-4-pyridyl)amino]pyrazole-4-carboxamide], the solubility was determined as 50.3 µg/mL in data set [1] (1% polysorbate (Tween 80) solution, aqueous with cosolvent or surfactant or cyclodextrin, 1% polysorbate (Tween 80)); 195 µg/mL in data set [1] (1% sodium lauryl sulfate (SLS) solution, aqueous with cosolvent or surfactant or cyclodextrin, 1% sodium lauryl sulfate (SLS)); 541 µg/mL in data set [1] (10% ELP solution, aqueous with cosolvent or surfactant or cyclodextrin, 10% ELP); 217 µg/mL in data set [1] (10% P407 solution, aqueous with cosolvent or surfactant or cyclodextrin, 10% P407); 108 µg/mL in data set [1] (10% Poloxamer 124 solution, aqueous with cosolvent or surfactant or cyclodextrin, 10% Poloxamer 124); 109 µg/mL in data set [1] (10% Poloxamer 188 solution, aqueous with cosolvent or surfactant or cyclodextrin, 10% Poloxamer 188). Moreover, the solubility amounted to 489 µg/mL in data set [1] (10% hydrogenated castor oil (RH40) solution, aqueous with cosolvent or surfactant or cyclodextrin, 10% hydrogenated castor oil (RH40)); 133 µg/mL in data set [1] (10% polyvinylpyrrolidone (PVP) solution, aqueous with cosolvent or surfactant or cyclodextrin, 10% polyvinylpyrrolidone (PVP)); 1420 µg/mL in data set [1] (30% HS15 solution, aqueous with cosolvent or surfactant or cyclodextrin, 30% HS15); 807 µg/mL in data set [1] (Oleoyl macrogol-6 / polyoxyl-6 glycerides (Labrafil M1944CS), oil or lipid); 99 µg/mL in data set [1] (aqueous with cosolvent or surfactant or cyclodextrin, 1% D-a-Tocopheryl polyethylene glycol 1000 succinate (TPGS)); 460 µg/mL in data set [1] (aqueous with cosolvent or surfactant or cyclodextrin, 10% polyoxyethylated 12-hydroxystearic acid (Solutol HS 15)). Also, the solubility in data set [1] (water) amounted to 8 µg/mL. Besides, the “Water solubility (in words)” value in data set [1] (water) is recorded as “poorly water soluble”. Further, the Suppression of pruritus entry with cIL-31 induced pruritus is “significantly suppressed pruritus”.

As a reminder, the solubility is the dissolved amount per volume that the medium holds.
